Values after ≈ are worked out from the molar mass of the structure shown.
What was measured:
Cryptococcus neoformans = assay: Antifungal activity against Cryptococcus neoformans H99 assessed as reduction in fungal growth incubated for 72 hrs by broth microdilution method; type: functional
[1] = Metabolic stability in mouse liver microsomes assessed as half life; type: ADME, Microsome
[2] = Metabolic stability in mouse liver microsomes assessed as elimination rate constant; type: ADME, Microsome
[3] = Metabolic stability in mouse liver microsomes assessed as intrinsic clearance; type: ADME, Microsome; settings: read-out: CLH
Candida tropicalis = assay: Antifungal activity against Candida tropicalis 2718 assessed as reduction in fungal growth incubated for 72 hrs by broth microdilution method; type: functional
Nakaseomyces glabratus = assay: Antifungal activity against Candida glabrata 537 assessed as reduction in fungal growth incubated for 72 hrs by broth microdilution method; type: functional
Candida parapsilosis = assay: Antifungal activity against Candida parapsilosis ATCC 22019 assessed as reduction in fungal growth incubated for 72 hrs by broth microdilution method; type: functional; settings: Lodderomyces parapsilosis
[Candida] auris = Antifungal activity against Candida auris D12 assessed as reduction in fungal growth incubated for 72 hrs by broth microdilution method; type: functional; settings: Candidozyma auris
Pichia kudriavzevii = assay: Antifungal activity against Pichia kudriavzevii 4946 assessed as reduction in fungal growth incubated for 72 hrs by broth microdilution method; type: functional
Candida albicans = assay: Antifungal activity against Candida albicans SC5314 assessed as reduction in fungal growth incubated for 72 hrs by broth microdilution method; type: functional

| SMILES | MIC (Cryptococcus neoformans) [µg/mL] | also measured |
| --- | --- | --- |
| NC(=O)c1ccc(-n2nc(-c3ccccc3O)nc2-c2ccccc2O)cc1 | 4 (≈ 10.7 µM) | – |
| O=C(NCCCC(F)(F)F)c1ccc(-n2nc(-c3ccccc3O)nc2-c2ccccc2O)cc1 | 8 (≈ 16.6 µM) | – |
| O=C1C[C@@H](NC(=O)c2ccc(-n3nc(-c4ccccc4O)nc3-c3ccccc3O)cc2)CO1 | > 64 | – |
| O=C(NCc1cccnc1)c1ccc(-n2nc(-c3ccccc3O)nc2-c2ccccc2O)cc1 | 8 (≈ 17.3 µM) | – |
| O=C(NCCOc1ccccn1)c1ccc(-n2nc(-c3ccccc3O)nc2-c2ccccc2O)cc1 | 4 (≈ 8.1 µM) | – |
| Cc1ncc2n1-c1ccc(Cl)cc1C(c1ccccc1F)=NC2 [MIDAZOLAM] | – | half-life [1]: 4.67 min; k el [2]: 0.00247 s⁻¹; microsomal CLint [3]: 742 µL/min/mg |
| O=C(NCCO)c1ccc(-n2nc(-c3ccccc3O)nc2-c2ccccc2O)cc1 | 4 (≈ 9.61 µM) | – |
| O=C(NC1CCS(=O)(=O)CC1)c1ccc(-n2nc(-c3ccccc3O)nc2-c2ccccc2O)cc1 | 4 (≈ 7.93 µM) | – |
| COCCNC(=O)c1ccc(-n2nc(-c3ccccc3O)nc2-c2ccccc2O)cc1 | 0.25 (≈ 0.581 µM) | MIC (Candida tropicalis): 4 µg/mL (≈ 9.29 µM); MIC (Nakaseomyces glabratus): < 0.125 µg/mL; MIC (Candida parapsilosis): > 64 µg/mL; MIC ([Candida] auris): > 64 µg/mL; MIC (Pichia kudriavzevii): 1 µg/mL (≈ 2.32 µM); MIC (Candida albicans): 8 µg/mL (≈ 18.6 µM) |
| CCNC(=O)c1ccc(-n2nc(-c3ccccc3O)nc2-c2ccccc2O)cc1 | 1 (≈ 2.5 µM) | – |
| O=C(NCc1ccccn1)c1ccc(-n2nc(-c3ccccc3O)nc2-c2ccccc2O)cc1 | 8 (≈ 17.3 µM) | – |
| O=C(NCC(=O)N1CCOCC1)c1ccc(-n2nc(-c3ccccc3O)nc2-c2ccccc2O)cc1 | 1 (≈ 2 µM) | – |
| O=C(NCc1ccncc1)c1ccc(-n2nc(-c3ccccc3O)nc2-c2ccccc2O)cc1 | 4 (≈ 8.63 µM) | – |
| CCCNC(=O)c1ccc(-n2nc(-c3ccccc3O)nc2-c2ccccc2O)cc1 | 4 (≈ 9.65 µM) | – |
| O=C(NNCc1ccccc1)c1ccc(-n2nc(-c3ccccc3O)nc2-c2ccccc2O)cc1 | 8 (≈ 16.8 µM) | – |
| O=C(NCCN1CCCCC1)c1ccc(-n2nc(-c3ccccc3O)nc2-c2ccccc2O)cc1 | 1 (≈ 2.07 µM) | – |
| O=C(N[C@H]1CCOC1)c1ccc(-n2nc(-c3ccccc3O)nc2-c2ccccc2O)cc1 | 4 (≈ 9.04 µM) | – |
| O=C(NCC(O)c1ccccc1)c1ccc(-n2nc(-c3ccccc3O)nc2-c2ccccc2O)cc1 (stereo unspecified) | 4 (≈ 8.12 µM) | – |
| O=C(NCCN1CCOCC1)c1ccc(-n2nc(-c3ccccc3O)nc2-c2ccccc2O)cc1 | 0.5 (≈ 1.03 µM) | MIC (Candida tropicalis): 4 µg/mL (≈ 8.24 µM); MIC (Nakaseomyces glabratus): < 0.125 µg/mL; MIC (Candida parapsilosis): 64 µg/mL (≈ 132 µM); MIC ([Candida] auris): > 64 µg/mL; MIC (Pichia kudriavzevii): 8 µg/mL (≈ 16.5 µM); MIC (Candida albicans): 32 µg/mL (≈ 65.9 µM) |

| SMILES | MIC (Cryptococcus neoformans) [µg/mL] | also measured |
| --- | --- | --- |
| O=C(O)c1cccc(-n2nc(-c3ccccc3O)nc2-c2ccccc2O)c1 | 4 (≈ 10.7 µM) | – |
| O=C(NCCNc1ncccn1)c1ccc(-n2nc(-c3ccccc3O)nc2-c2ccccc2O)cc1 | 0.5 (≈ 1.01 µM) | MIC (Candida tropicalis): 8 µg/mL (≈ 16.2 µM); MIC (Nakaseomyces glabratus): 1 µg/mL (≈ 2.03 µM); MIC (Candida parapsilosis): > 64 µg/mL; MIC ([Candida] auris): > 64 µg/mL; MIC (Pichia kudriavzevii): 16 µg/mL (≈ 32.4 µM); MIC (Candida albicans): 32 µg/mL (≈ 64.8 µM) |
| O=C(NCCCN1CCOCC1)c1cccc(-n2nc(-c3ccccc3O)nc2-c2ccccc2O)c1 | 2 (≈ 4 µM) | – |
| O=C1C[C@H](NC(=O)c2ccc(-n3nc(-c4ccccc4O)nc3-c3ccccc3O)cc2)CO1 | > 64 | – |
| O=C(NCCc1ccccc1)c1ccc(-n2nc(-c3ccccc3O)nc2-c2ccccc2O)cc1 | 8 (≈ 16.8 µM) | – |
| CN1CCOC(CNC(=O)c2ccc(-n3nc(-c4ccccc4O)nc3-c3ccccc3O)cc2)C1 (stereo unspecified) | 0.5 (≈ 1.03 µM) | MIC (Candida tropicalis): 1 µg/mL (≈ 2.06 µM); MIC (Nakaseomyces glabratus): < 0.125 µg/mL; MIC (Candida parapsilosis): 32 µg/mL (≈ 65.9 µM); MIC ([Candida] auris): > 64 µg/mL; MIC (Pichia kudriavzevii): 4 µg/mL (≈ 8.24 µM); MIC (Candida albicans): 2 µg/mL (≈ 4.12 µM) |
| O=C(NCCCO)c1ccc(-n2nc(-c3ccccc3O)nc2-c2ccccc2O)cc1 | 2 (≈ 4.65 µM) | – |
| O=C1CC(NC(=O)c2ccc(-n3nc(-c4ccccc4O)nc3-c3ccccc3O)cc2)CN1 (stereo unspecified) | 4 (≈ 8.78 µM) | – |
| O=C(NCCCn1ccnc1)c1ccc(-n2nc(-c3ccccc3O)nc2-c2ccccc2O)cc1 | 8 (≈ 16.6 µM) | – |
| O=C(c1ccc(-n2nc(-c3ccccc3O)nc2-c2ccccc2O)cc1)N1CCOCC1 | 4 (≈ 9.04 µM) | – |
| O=C(c1ccc(-n2nc(-c3ccccc3O)nc2-c2ccccc2O)cc1)N1CCC(O)CC1 | 4 (≈ 8.76 µM) | – |
| O=C(NCCN1CCC(F)(F)CC1)c1ccc(-n2nc(-c3ccccc3O)nc2-c2ccccc2O)cc1 | 1 (≈ 1.92 µM) | – |
| CCCCNC(=O)c1ccc(-n2nc(-c3ccccc3O)nc2-c2ccccc2O)cc1 | 4 (≈ 9.34 µM) | – |
| O=C(NCc1ccccc1)c1ccc(-n2nc(-c3ccccc3O)nc2-c2ccccc2O)cc1 | 4 (≈ 8.65 µM) | – |
| CN1CCN(CCNC(=O)c2ccc(-n3nc(-c4ccccc4O)nc3-c3ccccc3O)cc2)CC1 | 1 (≈ 2.01 µM) | – |
| CNC(=O)c1ccc(-n2nc(-c3ccccc3O)nc2-c2ccccc2O)cc1 | 1 (≈ 2.59 µM) | – |
| O=C(NCCCN1CCOCC1)c1ccc(-n2nc(-c3ccccc3O)nc2-c2ccccc2O)cc1 | 1 (≈ 2 µM) | – |
| CS(=O)(=O)CCNC(=O)c1ccc(-n2nc(-c3ccccc3O)nc2-c2ccccc2O)cc1 | 1 (≈ 2.09 µM) | – |
| O=C(NCCN1CCOCC1)c1cccc(-n2nc(-c3ccccc3O)nc2-c2ccccc2O)c1 | 1 (≈ 2.06 µM) | – |

| SMILES | MIC (Cryptococcus neoformans) [µg/mL] | also measured |
| --- | --- | --- |
| Cc1nccn1CCCNC(=O)c1ccc(-n2nc(-c3ccccc3O)nc2-c2ccccc2O)cc1 | 8 (≈ 16.2 µM) | – |
| O=C(NCC1CCS(=O)(=O)C1)c1ccc(-n2nc(-c3ccccc3O)nc2-c2ccccc2O)cc1 (stereo unspecified) | 8 (≈ 15.9 µM) | – |
| O=C(NNc1ccccc1)c1ccc(-n2nc(-c3ccccc3O)nc2-c2ccccc2O)cc1 | 2 (≈ 4.32 µM) | – |
| CC(C)(O)CNC(=O)c1ccc(-n2nc(-c3ccccc3O)nc2-c2ccccc2O)cc1 | 2 (≈ 4.5 µM) | – |
| CN1CCC(CNC(=O)c2ccc(-n3nc(-c4ccccc4O)nc3-c3ccccc3O)cc2)CC1 | 4 (≈ 8.27 µM) | – |
| O=C(NCCc1ccccn1)c1ccc(-n2nc(-c3ccccc3O)nc2-c2ccccc2O)cc1 | 0.5 (≈ 1.05 µM) | MIC (Candida tropicalis): 64 µg/mL (≈ 134 µM); MIC (Nakaseomyces glabratus): < 0.125 µg/mL; MIC (Candida parapsilosis): > 64 µg/mL; MIC ([Candida] auris): > 64 µg/mL; MIC (Pichia kudriavzevii): 4 µg/mL (≈ 8.38 µM); MIC (Candida albicans): 32 µg/mL (≈ 67 µM) |
| CCOCCNC(=O)c1ccc(-n2nc(-c3ccccc3O)nc2-c2ccccc2O)cc1 | 1 (≈ 2.25 µM) | – |
| O=C(N[C@@H]1CCOC1)c1ccc(-n2nc(-c3ccccc3O)nc2-c2ccccc2O)cc1 | 4 (≈ 9.04 µM) | – |
| CN(C)CCNC(=O)c1ccc(-n2nc(-c3ccccc3O)nc2-c2ccccc2O)cc1 | 4 (≈ 9.02 µM) | – |
| COCCCNC(=O)c1ccc(-n2nc(-c3ccccc3O)nc2-c2ccccc2O)cc1 | 4 (≈ 9 µM) | – |
| O=C(Nc1ccccc1)c1ccc(-n2nc(-c3ccccc3O)nc2-c2ccccc2O)cc1 | 4 (≈ 8.92 µM) | – |
| O=C(NCc1ncccn1)c1ccc(-n2nc(-c3ccccc3O)nc2-c2ccccc2O)cc1 | 4 (≈ 8.61 µM) | – |
| O=C(NC1CS(=O)(=O)C1)c1ccc(-n2nc(-c3ccccc3O)nc2-c2ccccc2O)cc1 | 1 (≈ 2.1 µM) | – |
| C[N+]1(CCNC(=O)c2ccc(-n3nc(-c4ccccc4O)nc3-c3ccccc3O)cc2)CCOCC1.[I-] | 4 | – |
| O=C(NCc1ccco1)c1ccc(-n2nc(-c3ccccc3O)nc2-c2ccccc2O)cc1 | 4 (≈ 8.84 µM) | – |
| O=C(NC1CCS(=O)(=O)C1)c1cccc(-n2nc(-c3ccccc3O)nc2-c2ccccc2O)c1 (stereo unspecified) | 4 (≈ 8.15 µM) | – |
| O=C(NCCC1CCOCC1)c1ccc(-n2nc(-c3ccccc3O)nc2-c2ccccc2O)cc1 | 0.25 (≈ 0.516 µM) | MIC (Candida tropicalis): 1 µg/mL (≈ 2.06 µM); MIC (Nakaseomyces glabratus): < 0.125 µg/mL; MIC (Candida parapsilosis): 32 µg/mL (≈ 66 µM); MIC ([Candida] auris): > 64 µg/mL; MIC (Pichia kudriavzevii): 16 µg/mL (≈ 33 µM); MIC (Candida albicans): 32 µg/mL (≈ 66 µM) |
| CN1CCCC(CNC(=O)c2ccc(-n3nc(-c4ccccc4O)nc3-c3ccccc3O)cc2)C1 (stereo unspecified) | 0.25 (≈ 0.517 µM) | MIC (Candida tropicalis): 32 µg/mL (≈ 66.2 µM); MIC (Nakaseomyces glabratus): < 0.125 µg/mL; MIC (Candida parapsilosis): 64 µg/mL (≈ 132 µM); MIC ([Candida] auris): > 64 µg/mL; MIC (Pichia kudriavzevii): 16 µg/mL (≈ 33.1 µM); MIC (Candida albicans): 32 µg/mL (≈ 66.2 µM) |
| O=C(NN1CCOCC1)c1ccc(-n2nc(-c3ccccc3O)nc2-c2ccccc2O)cc1 | 2 (≈ 4.37 µM) | – |

— ChEMBL document CHEMBL5528016, “Design, synthesis and evaluation of novel deferasirox derivatives with high antifungal potency in vitro and in vivo” (Eur J Med Chem, 2024)
